Measurements taken from paper PMC6150385, “The Blood-Brain Barrier Permeability of Six Indole Alkaloids from Uncariae Ramulus Cum Uncis in the MDCK-pHaMDR Cell Monolayer Model” (Molecules : A Journal of Synthetic Chemistry and Natural …, 2017).

Key:
[1] = system: P-gp; assay: Transport in the presence and absence of verapamil (P-gp function / verapamil inhibition of efflux) in MDCK-pHaMDR cell monolayer
Procedure: The cell monolayers were washed twice with prewarmed HBSS before the experiments were carried out. The HBSS medium in the AP side (0.5 mL, for absorption transport) or BL side (1.5 mL, for efflux transport) was replaced with different test compounds. The plates were shaken at 55 rpm for 90 min at 37 °C in a water bath. Samples were quantitatively collected from both sides of the cell monolayer, immediately frozen, lyophilized, and then preserved below −20 °C. To measure the intracellular amounts, the cell monolayers were lyophilized after three freeze (−20 °C)–thaw (room temperature) cycles and preserved below –20 °C. […] The tested concentrations of alkaloids 1–6 were 40 µM. The function of P-gp were tested by the transport of Rh123 at 10 µM in the presence and absence of verapamil (100 µM) undertaken as described above.
The verapamil inhibition experiment was carried out for alkaloids 1 and 3. The cells were pre-incubated with 100 µM of verapamil for 30 min before drug transport assays. Then verapamil was added to both sides, and 40 µM of test alkaloid was added to AP or BL side.
Papp in AP→BL or BL→AP direction of each alkaloid was calculated based on the following equation:Papp = dQ/dt/A/C0 (cm/s) where Q is the accumulation quantity of the alkaloid in the receiver side (μmol), dQ/dt is the linear appearance rate of the alkaloid in the receiver side (μmol/s), C0 is the initial concentration in the donor side (µM), and A is the membrane surface area (cm^2). All of the experiments were conducted in six duplications and data were expressed as the mean ± SD.

[2] = Bidirectional transport across MDCK-pHaMDR cell monolayer (in vitro BBB model); conditions: dog; for recovery at 90 min, 40 µM: MDCK-MDR1, Recovery Rate
[3] = system: MDCK-pHaMDR cell monolayer; assay: as above; conditions: for Intracellular Accumulation / Efflux Ratio (Papp BL→AP/Papp AP→BL): 40 μM, 90 min; for transport mechanism: time- (30–180 min) and concentration- (20–120 μM) dependence
[4] = in vitro; conditions: dog
[5] = system: MDCK-pHaMDR cell monolayer; conditions: for BBB permeability classification: MDCK-MDR1; for intracellular accumulation rates: dog, MDCK-MDR1, 90 min, 40 µM
[6] = Stability of QC samples after three freeze-thaw cycles (HPLC); type: physicochemical; conditions: three freeze (−20 °C)-thaw cycles, percentage remains
Procedure: The stock solutions of the six alkaloids were diluted to three concentrations (low, medium and high) as quality control (QC) samples. Accuracy, precision and stability of QC samples were validated. Accuracy and intraday precision were evaluated by determining the QC samples in three replicates on the same day, while interday precision was assessed by repeated analysis of the same QC samples over three consecutive days. Precision was estimated by RSD, which should not exceed 15%. Accuracy was assessed by comparison of the calculated mean concentrations with the spiked concentrations, and the acceptable range should be within 85–115%. The absolute recoveries of six alkaloids were determined by comparing the peak areas of analytes in QC samples with those of the standard solutions in MeOH with equivalent concentrations.

[7] = dog, MDCK-MDR1, with verapamil 100 µM
[8] = MDCK-MDR1, Papp AP→BL, 40 μM, 90 min

| SMILES | recovery at 90 min, 40 µM ([2]; AP→BL, 40 μM, 90 min) [%] | recovery at 90 min, 40 µM ([2]; BL→AP, 40 μM, 90 min) [%] | Intracellular Accumulation ([3]; BL→AP) [%] | Papp B→A ([4]; MDCK-MDR1) [×10⁻⁶ cm/s] | Papp A→B [4, 8] [×10⁻⁶ cm/s] | Stability ([6]; QC sample 5 μM) [%] | Stability ([6]; QC sample 60 μM) [%] | Stability ([6]; QC sample 120 μM) [%] | Papp A→B at 90 min, 40 µM ([4]; MDCK-MDR1) [×10⁻⁶ cm/s] | Papp B→A at 90 min, 40 µM ([4]; MDCK-MDR1) [×10⁻⁶ cm/s] | other results |
| --- | --- | --- | --- | --- | --- | --- | --- | --- | --- | --- | --- |
| COC(=O)c1ccccc1-c1c2ccc(=N)cc-2oc2cc(N)ccc12 [Rh123, Rhodamine 123, reference compound] |  |  |  |  |  |  |  |  |  |  | Papp A→B at 90 min, 10 µM ([1]; dog, MDCK-MDR1): 0.843 ± 0.195 ×10⁻⁶ cm/s; Papp B→A at 90 min, 10 µM ([1]; dog, MDCK-MDR1): 5.8 ± 0.259 ×10⁻⁶ cm/s; efflux ratio at 90 min, 10 µM ([1]; dog, MDCK-MDR1, Efflux Ratio (Papp BL→AP/Papp AP→BL), Rh123 10 μM, 90 min, absence of verapamil): 6.88; Papp A→B at 90 min, 10 µM [1, 7]: 1.27 ± 0.213 ×10⁻⁶ cm/s; Papp B→A at 90 min, 10 µM [1, 7]: 1.71 ± 0.099 ×10⁻⁶ cm/s; efflux ratio at 90 min, 10 µM ([1]; dog, MDCK-MDR1, with verapamil 100 µM, Efflux Ratio (Papp BL→AP/Papp AP→BL), Rh123 10 μM with 100 μM verapamil, 90 min): 1.34 |
| CC[C@H]1CN2CC[C@]3(C(=O)Nc4ccccc43)[C@@H]2C[C@@H]1/C(=C\OC)C(=O)OC [alkaloid 1, rhynchophylline] | 99.9 ± 1.15 | 102.2 ± 0.47 | 0.40 ± 0.04 | 42.3 ± 2.48 | 4.37 ± 0.37 | 96.32 ± 3.30 | 96.86 ± 4.64 | 102.59 ± 3.38 |  |  | Intracellular Accumulation ([3]; AP→BL): 0.36 ± 0.05%; Papp A→B ([4]; MDCK-MDR1, Papp AP→BL (level), AP side to BL side): ~1 ×10⁻⁶ cm/s; Papp A→B at 90 min, 40 µM ([1]; dog, MDCK-MDR1): 22.2 ± 6.41 ×10⁻⁶ cm/s; Papp B→A at 90 min, 40 µM ([1]; dog, MDCK-MDR1): 18.1 ± 1.09 ×10⁻⁶ cm/s; P-gp substrate status ([1]; from verapamil (100 µM) inhibition of efflux): substrates of P-gp; BBB permeability classification [5]: moderate permeability |
| CC[C@H]1CN2CC[C@@]3(C(=O)Nc4ccccc43)[C@@H]2C[C@@H]1/C(=C\OC)C(=O)OC [alkaloid 2, isorhynchophylline] | 94.3 ± 1.43 | 101 ± 1.89 | 0.37 ± 0.06 | 27.7 ± 0.93 | 17.7 ± 1.2 | 108.52 ± 1.08 | 100.08 ± 2.26 | 105.21 ± 3.28 |  |  | Intracellular Accumulation ([3]; AP→BL): 0.24 ± 0.04%; transport mechanism [3]: passive diffusion; Papp ([4]; MDCK-MDR1): ~10 ×10⁻⁶ cm/s |
| C=C[C@H]1CN2CC[C@]3(C(=O)Nc4ccccc43)[C@@H]2C[C@@H]1/C(=C\OC)C(=O)OC [alkaloid 3, corynoxeine] | 96.4 ± 1.17 | 99.6 ± 1.57 |  |  |  | 106.67 ± 5.82 | 102.37 ± 1.65 | 101.52 ± 2.26 | 1.21 ± 0.14 | 49.7 ± 4.71 | Efflux Ratio (Papp BL→AP/Papp AP→BL) [3]: 40.94; Efflux Ratio (Papp BL→AP/Papp AP→BL) ([3]; listed as corynoxeine (3)): above 2; Papp A→B ([4]; MDCK-MDR1): ~1 ×10⁻⁶ cm/s; Papp A→B at 90 min, 40 µM ([1]; dog, MDCK-MDR1): 17.2 ± 2.45 ×10⁻⁶ cm/s; Papp B→A at 90 min, 40 µM ([1]; dog, MDCK-MDR1): 17.5 ± 0.82 ×10⁻⁶ cm/s; efflux ratio at 90 min, 40 µM ([1]; dog, MDCK-MDR1, with verapamil 100 µM, Efflux Ratio (Papp BL→AP/Papp AP→BL), 40 μM alkaloid with 100 μM verapamil, 90 min): < 2; BBB permeability classification [5]: moderate permeability; intracellular accumulation rates [5]: less than 0.4% |
| C=C[C@H]1CN2CC[C@@]3(C(=O)Nc4ccccc43)[C@@H]2C[C@@H]1/C(=C\OC)C(=O)OC [alkaloid 4, isocorynoxeine] | 93 ± 1.4 | 98.47 ± 0.82 |  |  |  | 107.15 ± 5.06 | 102.72 ± 1.97 | 102.02 ± 2.43 | 11.1 ± 1.49 | 20.7 ± 1.03 | efflux ratio at 90 min, 40 µM ([2]; MDCK-MDR1, Efflux Ratio (Papp BL→AP/Papp AP→BL), 40 μM, 90 min): < 2; Papp at 90 min, 40 µM ([4]; MDCK-MDR1): ~10 ×10⁻⁶ cm/s; intracellular accumulation rates [5]: less than 0.4% |
| CC[C@H]1CN2CCc3c([nH]c4ccccc34)[C@H]2C[C@@H]1/C(=C\OC)C(=O)OC [alkaloid 5, hirsutine] | 89.3 ± 6.15 | 104 ± 1.94 | 6.19 ± 0.73 | 14.1 ± 0.73 | 15.1 ± 1.32 | 106.1 ± 3.57 | 101.9 ± 6.51 | 100.5 ± 4.86 |  |  | transport mechanism [3]: passive diffusion; Papp ([4]; MDCK-MDR1): ~10 ×10⁻⁶ cm/s |
| C=C[C@H]1CN2CCc3c([nH]c4ccccc34)[C@H]2C[C@@H]1/C(=C\OC)C(=O)OC [alkaloid 6, hirsuteine] | 88.9 ± 5.99 | 104 ± 1.17 |  |  |  | 106.89 ± 3.01 | 103.80 ± 5.92 | 102.23 ± 4.19 | 14.9 ± 1.83 | 11.3 ± 1.8 | Papp at 90 min, 40 µM ([4]; MDCK-MDR1): ~10 ×10⁻⁶ cm/s |
| Cn1c(=O)c2c(ncn2C)n(C)c1=O [caffeine, reference compound] |  |  |  |  |  |  |  |  |  |  | Papp at 90 min ([2]; MDCK-MDR1): 30 ×10⁻⁶ cm/s |
